Data set [1] concerns cancer cell lines. The data set is described as follows: MTT cytotoxicity, cancer cell lines overall. Conditions: for cytotoxic properties toward cancer cell lines: K562, MOLT-4, HeLa, MTT, 48 h. It counts as cell-based, human. The procedure: (§1) Fourteen new benzofuran derivatives were tested for their cytotoxic properties in K562, MOLT-4 (leukemia, suspension cells), HeLa (cervix carcinoma, adherent cells), and normal endothelial cells (HUVEC). First, we measured the viability of cells after 48 h incubation with the given compound at the concentration of 100 μM. Next, for compounds that reduced cancer cells survival for more than 50%, we determined IC50 values. Cells that were exposed to 1% DMSO (a vehicle) served as the control with 100% survival. Cells treated with 1 µM staurosporine served as the internal control of the cytotoxicity experiments.
(§2) Human umbilical vein endothelial cells (Life Technologies, Waltham, MA, USA) were cultured (according to the manufacturer instructions) in Medium 200 supplemented with Low Serum Growth Supplement. 1 × 10^4 HUVEC cells were seeded on each well on a 96-well plate (Nunc). The HeLa (human cervix carcinoma) K562 and MOLT-4 (leukemia) cells were cultured in RPMI 1640 medium supplemented with antibiotics and 10% fetal calf serum (HeLa, K562) in a 5% CO2-95% air atmosphere. 7 × 10^3 HeLa, K562, or MOLT-4 cells were seeded on each well on 96-well plate (Nunc). 24 h later cells were treated with the test compounds and then incubated for an additional 48 hours. Stock solutions of test compounds were freshly prepared in DMSO (dimethylsulfoxide). The final concentrations of compounds that were tested in the cell cultures were: 2 × 10^−1, 1 ×10^−1, 5 × 10^−2, 1 × 10^−2, 1 × 10^−3 and 1 × 10^−4 mM. The concentration of DMSO in the cell culture medium was 1%.
(§3) The values of IC50 (the concentration of test compound that is required to reduce the cell survival fraction to 50% of the control) were calculated from dose-response curves and used as a measure of cellular sensitivity to a given treatment.
(§4) The MTT [3-(4,5-dimethylthiazol-2-yl)-2,5-diphenyltetrazolium bromide; Sigma, St. Louis, MO, USA] assay determined the cytotoxicity of all the compounds, as described previously. Briefly, after 24 h or 48 h of incubation with the drug, the cells were treated with the MTT reagent, and incubation was continued for 2 h. MTT-formazan crystals were dissolved in 20% SDS and 50% DMF at pH 4.7 and absorbance was read at 570 and 650 nm on an ELISA-PLATE READER (FLUOstar Omega, BMG LABTECH GmbH, Ortenberg, Germany). As a control (100% viability), cells that were grown in the presence of medium vehicle only with 1% DMSO were used.

Data set [2] concerns caspase 3/7 in K562 cells. In words: Apo-ONE Homogeneous Caspase-3/7 Assay in K562 cells. The conditions noted are these: compound at 5 × IC50 (staurosporine 1 µM), 18 h, 1% DMSO normalized to 1.0. Type of data set: cell-based, human. Here is the method:
We have measured the activity of caspases 3 and 7 (caspase 3/7), which are markers of programmed cell death. […] The activity of caspase 3/7 was measured using pro-fluorescent peptide substrate.
20 × 10^3 K562 cells were seeded on each well of 96-well plate in RPMI 1640 medium supplemented with 10% fetal calf serum and antibiotics. Cells were grown for 24 h at 37 °C and 5% CO2. The test compounds were dissolved in DMSO and added to the cell culture. The concentration of tested benzo[b]furans in cell culture was 5 × IC50.
Cells treated with 1% DMSO served as a negative control, while cells incubated with staurosporine (a strong inducer of apoptosis) were used as a positive control. Cells were exposed to test compounds for 18 h at 37 °C and 5% CO2. Subsequently, Apo-ONE® Homogeneous Caspase-3/7 Assay (Promega, Madison, WI, USA) measured the activity of caspase 3 and 7, according to the manufacturer’s instructions. Briefly, the cells were lysed and incubated for 1.5 h with profluorescent substrate for caspase 3 and 7. Next, fluorescence was read at an excitation wavelength of 485 nm and emission of 520 nm with FLUOStar Omega plate reader (BMG-Labtech, Ortenberg, Germany).
Figure 5 Activity of caspase 3 and 7 in K562 cells treated with the test benzofurans 1c, 1e, 2d, 3d, or staurosporine for 18 h. Apoptosis was determined by Apo-ONE® Homogeneous Caspase-3/7 Assay (Promega, Madison, WI, USA). Abbreviations: DMSO—K562 cells treated with 1% DMSO. The caspase activation level in cells exposed to 1% DMSO was normalized to 1.0. Mean values +/− SD are shown.

Data set [3] relates to plasmid DNA (pcDNA3.1 HisC). The data set is described as follows: Digestion of plasmid DNA with BamHI restriction nuclease. Type of data set: biochemical. The conditions noted are these: 100 µM, overnight 37 °C, then BamHI 3 h; agarose gel. From the text: We hypothesized that a possible explanation of observed cytotoxicity might be due to an interaction of test benzofurans with genomic DNA (e.g., by intercalation). To verify this hypothesis, we investigated whether the test benzofurans have any effect on digestion of a plasmid DNA (pcDNA3.1 HisC) with endonuclease BamH1. pcDNA3.1 HisC contains a unique BamH1 restriction site which allows for plasmid linearization. Plasmid DNA exists in linear, superhelical, and circular forms that differ in electrophoretic mobility (Figure 6 lane 1). Plasmid DNA was converted to a linear form upon digestion with BamH1 (lane 2). […] In the presence of test compounds, pcDNA3.1 HisC was partially digested with Bam H1 restriction enzyme (Figure 6 lanes 4–7). Most of the plasmid DNA was converted to a linear form, however there is a circular form still present.
0.5 μg of plasmid DNA (pcDNAHisC, total length 5.5 kbp) containing a unique BamHI restriction site was dissolved in a 1× BamHI reaction buffer and then incubated overnight at 37 °C with the test compounds or daunorubicin, a strong intercalating agent, which was used as a positive control. The concentration of the test compounds and daunorubicin samples was 100 µM. In the next step, the reaction mixtures were digested with BamHI restriction endonuclease (2 U/μL) for 3 h at 37 °C. The total reaction volume was 10 μL. Products of the reaction were subjected to the 1% agarose gel electrophoresis in TBE buffer. The gel was stained with ethidium bromide and DNA fragments were visualized under a UV lamp (GBox, Syngene, Cambridge, UK).
Figure 6 Digestion of pcDNA3.1HisC (total length 5.5kbp) with BamH1 endonuclease. M—marker DNA; 1—not digested plasmid DNA; 2—plasmid DNA digested with BamH1 (DNA present in linear form); 3—plasmid DNA + daunorubicin + BamH1; 4—plasmid DNA + 1c + BamH1; 5—plasmid DNA + 2d + BamH1; 6—plasmid DNA + 1e + BamH1; and, 7—plasmid DNA + 3d + BamH1.

The subject of data set [4] is HeLa (human cervix carcinoma) cells. The data set is described as follows: MTT cytotoxicity assay, HeLa. It counts as cell-based. Conditions: for IC50: Homo sapiens, HeLa, 48 h incubation with cells, MTT; for reduction of viability of HeLa cells: initial screening, 100 μM, 48 h. The procedure:
as §1, §2, §3, §4
(Tetrazolium assays rely on reduction of a dye to a coloured formazan, in cell work by metabolically active cells.)

Data set [5] relates to Human umbilical vein endothelial cells (HUVEC). The data set is described as follows: MTT cytotoxicity assay, HUVEC. It counts as cell-based. Conditions: for IC50: Homo sapiens, HUVEC, 48 h incubation with cells, MTT; for cytotoxicity against human normal endothelial cells: initial screening, 100 μM, 48 h. The procedure:
as §1, §2, §3, §4

Data set [6] has as its system MOLT-4 (leukemia) cells. In words: MTT cytotoxicity assay, MOLT-4. It counts as cell-based, human. The conditions noted are these: for IC50: Homo sapiens, MOLT-4, 48 h incubation with cells, MTT; for reduction of viability of MOLT-4 cells: initial screening, 100 μM, 48 h. Here is the method:
as §1, §2, §3, §4

Data set [7] deals with K562 (leukemia) cells. The data set is described as follows: MTT cytotoxicity assay, K562. The conditions noted are these: for IC50: 48 h incubation with cells, MTT; for reduction of viability of K562 cells: initial screening, 100 μM, 48 h. Type of data set: cell-based, human. The procedure: as §1, §2, §3, §4

What is called melting point is the temperature of the solid-liquid transition. By IC50 is commonly meant the concentration that inhibits the measured activity by half. Low values mean greater potency, high ones weaker potency.

SMILES strings stand for the structures. Entries after “also recorded” stand apart in the source; their conditions may differ. A value given as a limit tells only on which side of the number the result lay.

With `CC(=O)c1cc2oc(C)c(C(=O)O)c2c(Br)c1O` [Compound 2e, 6-Acetyl-4-bromo-5-hydroxy-2-methylbenzofuran-3-carboxylic acid], the melting point was 196 to 197 °C.
On the same count and under the same terms, for `COc1cc2c(C)c(Br)oc2c(C(C)=O)c1OC` [Compound 1d, 1-(2-Bromo-5,6-dimethoxy-3-methylbenzofuran-7-yl)ethanone] the value was 94 to 95 °C.
`CC(=O)c1cc2oc(C)c(C(N)=O)c2c(Br)c1O` [Compound 2b, 6-Acetyl-4-bromo-5-hydroxy-2-methylbenzofuran-3-carboxamide]: the “cytotoxic properties toward cancer cell lines” value in data set [1] is listed as “loss of cytotoxic properties”.
Regarding `COc1cc2c(C(N)=O)c(C)oc2cc1C(C)=O` [Compound 3c, 6-Acetyl-5-methoxy-2-methylbenzofuran-3-carboxamide], the melting point is 223 to 224 °C. For the same compound, the “cytotoxic properties toward cancer cell lines” value in data set [1] is recorded as “did not show the cytotoxic properties; also recorded: loss of cytotoxic properties”.
With `CC(=O)c1cc2oc(C)c(C(N)=O)c2cc1O` [Compound 2a, 6-Acetyl-5-hydroxy-2-methylbenzofuran-3-carboxamide], the “cytotoxic properties toward cancer cell lines” value in data set [1] is on record as “did not show the cytotoxic properties; also recorded: loss of cytotoxic properties”.
Compound `COC(=O)c1oc2c(C(C)=O)c(OC)c(OC)cc2c1C` [Compound 1b, Methyl 7-acetyl-5,6-dimethoxy-3-methyl-1-benzofuran-2-carboxylate] registered a melting point of 98 to 100 °C.
Turning to `CN[C@@H]1C[C@H]2O[C@@](C)([C@@H]1OC)n1c3ccccc3c3c4c(c5c6ccccc6n2c5c31)C(=O)NC4` [staurosporine, reference compound], in data set [2], the “increase in the activity of caspase 3/7” value is on record as “significantly increased”.
Consider `COc1cccc2c1C(=O)c1c(O)c3c(c(O)c1C2=O)C[C@@](O)(C(C)=O)C[C@@H]3O[C@H]1C[C@H](N)[C@H](O)[C@H](C)O1` [Daunorubicin, reference compound], for which the “inhibition of digestion of plasmid DNA with BamH1 / interaction with DNA” value in data set [3] is listed as “completely inhibited”.
Take `COc1cc2c(C(=O)O)c(C)oc2cc1C(C)=O` [Compound 3b, 6-Acetyl-5-Methoxy-2-Methylbenzofuran-3-Carboxylic Acid]: the melting point is 249 to 250 °C.
Regarding `COc1cc2c(C)c(Br)oc2c(C(=O)CBr)c1OC` [Compound 1e, 2-Bromo-1-(2-bromo-5,6-dimethoxy-3-methylbenzofuran-7-yl)ethanone], in data set [4], the 50% inhibitory concentration (IC50) was determined as 28 µM and the “reduction of viability of HeLa cells” value was “more than 50%”. Moreover, in data set [3], the “inhibition of digestion of plasmid DNA with BamH1 / interaction with DNA” value is given as “to some extent, interact with DNA”. Also, in data set [2], the “increase in the activity of caspase 3/7” value is reported as “five-fold”. For the same compound, in data set [5], the half-inhibitory concentration (IC50) is 30 µM and the “cytotoxicity against human normal endothelial cells” value is “cytotoxic”. In data set [6], the 50% inhibitory concentration (IC50) was found to be 70 µM and the “reduction of viability of MOLT-4 cells” value is reported as “more than 50%”. For the same compound, in data set [7], the concentration for half-maximal inhibition (IC50) stood at 41 µM and the “reduction of viability of K562 cells” value is “more than 50%”. Moreover, the half-maximal inhibitory concentration (IC50) in data set [7] (Homo sapiens, K562, 48 h) is under 50 µM.
The compound `COc1cc2c(C)c(C(=O)O)oc2c(C(C)=O)c1OC` [Compound 1, 7-Acetyl-5,6-dimethoxy-3-methylbenzofuran-2-carboxylic acid] registered a melting point of 212 to 214 °C.
Consider `COc1cc2c(C)c(C(N)=O)oc2c(C(C)=O)c1OC` [Compound 1a, 7-Acetyl-5,6-dimethoxy-3-methylbenzofuran-2-carboxamide], for which the melting point fell in the range of 203 to 205 °C. In addition, in data set [1], the “cytotoxic properties toward cancer cell lines” value is “did not show the cytotoxic properties; also recorded: loss of cytotoxic properties”.
Compound `COC(=O)c1c(C)oc2cc(C(O)C(Br)Br)c(OC)cc12` (centres unmarked) [Compound 3a, Methyl 6-(2,2-dibromo-1-hydroxyethyl)-5-methoxy-2-methylbenzofuran-3-carboxylate] displayed a melting point of 170 to 172 °C. Besides, in data set [4], half-maximal inhibition (IC50) was put at 80 µM and the “reduction of viability of HeLa cells” value is recorded as “more than 50%”. For the same compound, in data set [5], the 50% inhibitory concentration (IC50) was 67 µM and the “cytotoxicity against human normal endothelial cells” value is “cytotoxic”. Further, in data set [6], the half-maximal inhibitory concentration (IC50) came out at 85 µM and the “reduction of viability of MOLT-4 cells” value is “more than 50%”. This compound returned an IC50 in data set [7] (Homo sapiens, K562, 48 h) of 85 µM. Besides, the “reduction of viability of K562 cells” value in data set [7] is reported as “more than 50%”.
In the case of `COC(=O)c1c(CBr)oc2cc(C(C)=O)c(OC)cc12` [Compound 3d, Methyl 6-acetyl-2-(bromomethyl)-5-methoxybenzofuran-3-carboxylate], in data set [4], it took 35 µM to reach half-maximal inhibition (IC50) and the “reduction of viability of HeLa cells” value is given as “more than 50%”. In addition, in data set [1] (compared to lead compounds VIII-X), the “decrease of cytotoxicity against human cancer cells compared to the lead compounds VIII-X” value was 5–10 folds. In addition, the “increase in the activity of caspase 3/7” value in data set [2] is recorded as “minimal, if any”. In data set [5], the IC50 was 6 µM and the “cytotoxicity against human normal endothelial cells” value is recorded as “cytotoxic”. For the same compound, in data set [6], it took 55 µM to reach half-maximal inhibition (IC50) and the “reduction of viability of MOLT-4 cells” value is “more than 50%”. Further, in data set [7], the IC50 came out at 28 µM and the “reduction of viability of K562 cells” value is “more than 50%”. The compound also showed a half-maximal inhibitory concentration (IC50) in data set [7] (Homo sapiens, K562, 48 h) of under 50 µM.

These data come from publication PMC6514909, “Synthesis of New Derivatives of Benzofuran as Potential Anticancer Agents” (Molecules, 2019).
